Measured values from EPA's ToxRefDB 2.

Legend:
[1] = test system: rat; details: Multigenerational reproductive toxicity study, sprague dawley, Oral, Feed, dose end: 2 generation
[2] = test system: mouse; details: Subchronic oral toxicity in rodents, cd1, Feed, dose end: 13 week, group: systemic
[3] = test system: rat; details: Combined chronic toxicity/carcinogenicity, sprague dawley, Oral, Feed, dose end: 24 month, group: systemic
[4] = test system: dog; details: Subchronic oral toxicity in nonrodent, beagle, Feed, dose end: 90 day, group: systemic
[5] = test system: dog; details: Subchronic oral toxicity in nonrodent, beagle, Feed, dose end: 13 week, group: systemic
[6] = test system: rat; details: Subchronic oral toxicity in rodents, sprague dawley, Feed, dose end: 90 day, group: systemic
[7] = test system: rat; details: Combined chronic toxicity/carcinogenicity, fischer, Oral, Feed, dose end: 105 week, group: systemic
[8] = test system: rat; details: Multigenerational reproductive toxicity study, sprague dawley, Oral, Feed, dose end: 3 generation
[9] = test system: rat; details: Subchronic oral toxicity in rodents, sprague dawley, Feed, dose end: 13 week, group: systemic, systemic / clinical chemistry / alanine aminotransferase (alt/sgpt) / alanine aminotransferase (alt/sgpt) + systemic / clinical chemistry / …
[10] = test system: rat; details: Prenatal developmental toxicity study, fischer, Oral, Feed, dose end: 20 GD
[11] = test system: mouse; details: Combined chronic toxicity/carcinogenicity, b6c3f1, Oral, Feed, dose end: 105 week, group: systemic
[12] = test system: mouse; details: Developmental neurotoxicity study; cd1; Oral; Feed; dose end: 63 PND; group: cannot be grouped; reproductive / offspring survival early / dead fetuses / dead fetuses
[13] = group: offspring, systemic / in life observation / clinical signs / reduced body size
[14] = group: parental, systemic / in life observation / food consumption / food consumption
[15] = group: parental, systemic / in life observation / food consumption / food consumption + systemic / in life observation / body weight / body weight + systemic…
[16] = group: reproductive, reproductive / offspring survival early / litter size / litter size
[17] = systemic / in life observation / body weight / body weight gain
[18] = systemic / in life observation / body weight / body weight gain + systemic / in life observation / body weight / body weight + systemic / in…
[19] = systemic / in life observation / body weight / body weight + systemic / in life observation / body weight / body weight gain + systemic / …
[20] = systemic / in life observation / body weight / body weight gain + systemic / in life observation / food consumption / food efficiency
[21] = systemic / in life observation / body weight / body weight gain + systemic / in life observation / food consumption / food efficiency + …
[22] = systemic / in life observation / body weight / body weight gain + systemic / in life observation / food consumption / food consumption + …
[23] = systemic / in life observation / food consumption / food consumption + systemic / in life observation / body weight / body weight gain
[24] = systemic / in life observation / body weight / body weight + systemic / in life observation / body weight / body weight gain + systemic / in…
[25] = systemic / organ weight / heart / relative to body weight
[26] = group: offspring, developmental / developmental landmark / vaginal opening / vaginal opening + systemic / in life observation / body weight / offspring (pup) …
[27] = group: parental, systemic / in life observation / body weight / body weight + systemic / organ weight / kidney / absolute + systemic / organ weight / kidney…
[28] = group: reproductive, reproductive / reproductive performance / fertility / fertility + reproductive / offspring survival early / litter size / litter size
[29] = group: developmental, systemic / in life observation / body weight / fetal weight
[30] = group: maternal, systemic / in life observation / body weight / body weight + systemic / in life observation / body weight / body weight gain + systemic / …
[31] = group: maternal, systemic / organ weight / liver / absolute + systemic / organ weight / liver / relative to body weight + systemic / in life observation / …
[32] = systemic / pathology microscopic / testes / degeneration + systemic / pathology microscopic / liver / carcinoma

What does the source list for `O=C(Nc1ccccc1)Nc1ccnc(Cl)c1` [Forchlorfenuron]?
NOAEL ([1]; group: offspring, systemic / in life observation / body weight / offspring (pup) weight + developmental / offspring survival late / lactation index / …): 13 mg/kg/day; LOAEL ([1]; group: offspring, systemic / in life observation / body weight / offspring (pup) weight + systemic / in life observation / clinical signs / reduced body size): 168 mg/kg/day; LEL [1, 13]: 13 mg/kg/day; NEL [1, 13]: < 13 mg/kg/day; LEL [1, 14]: 144 mg/kg/day; LOAEL [1, 14]: 144 mg/kg/day; NEL [1, 15]: 11 mg/kg/day; NOAEL [1, 15]: 11 mg/kg/day; LEL [1, 16]: 829 mg/kg/day; LOAEL [1, 16]: 829 mg/kg/day; NEL [1, 16]: 168 mg/kg/day; NOAEL [1, 16]: 168 mg/kg/day; LOAEL [2, 17]: 1290 mg/kg/day; LEL [2, 18]: 1290 mg/kg/day; NEL [2, 18]: 609 mg/kg/day; NOAEL [2, 18]: 609 mg/kg/day; LOAEL [3, 19]: 93 mg/kg/day; NOAEL [3, 19]: 7 mg/kg/day; NEL ([3]; systemic / pathology microscopic / kidney / dilatation + systemic / organ weight / adrenal gland / absolute + systemic / organ weight / …): 518 mg/kg/day; LOAEL [4, 20]: 173 mg/kg/day; NOAEL [4, 20]: < 173 mg/kg/day; LEL [4, 21]: 173 mg/kg/day; NEL [4, 21]: < 173 mg/kg/day; LOAEL [5, 22]: 162 mg/kg/day; NOAEL [5, 22]: 16.8 mg/kg/day; LEL [5, 23]: 1.8 mg/kg/day; NEL [5, 23]: < 1.8 mg/kg/day; LOAEL [6, 24]: 428 mg/kg/day; NOAEL [6, 24]: 84 mg/kg/day; LEL [6, 25]: 16 mg/kg/day; NEL [6, 25]: < 16 mg/kg/day

`CCCCC(CC)COC(=O)c1ccccc1C(=O)OCC(CC)CCCC` (stereo not given) [Di(2-ethylhexyl) phthalate] was tested. Which LEL [7, 17] did it give?
Its LEL is 300 mg/kg/day.

And the NEL [7, 17]?
The NEL was under 300 mg/kg/day.

What about the NOAEL ([7]; systemic / in life observation / body weight / body weight gain + systemic / pathology microscopic / liver / carcinoma + systemic / in life …) of the same compound?
Its NOAEL is 300 mg/kg/day.

And the LOAEL ([7]; systemic / in life observation / body weight / body weight gain + systemic / pathology microscopic / testes / degeneration)?
The LOAEL was 600 mg/kg/day.

And the LEL [8, 26]?
The LEL was 391 mg/kg/day.

What about the LOAEL [8, 26] of the same compound?
Its LOAEL is over 391 mg/kg/day.

What about the NEL [8, 26] of the same compound?
Its NEL is 48 mg/kg/day.

And the NOAEL [8, 26]?
Its NOAEL is at least 391 mg/kg/day.

And the LOAEL [8, 27]?
Its LOAEL is over 391 mg/kg/day.

And the NEL [8, 27]?
Its NEL is 14 mg/kg/day.

What about the NOAEL [8, 27] of the same compound?
Its NOAEL is at least 391 mg/kg/day.

What about the LEL ([8]; group: parental, systemic / organ weight / liver / relative to body weight + systemic / pathology microscopic / kidney / dilatation + systemic / pathology …) of the same compound?
The LEL was 48 mg/kg/day.

And the NEL ([8]; group: reproductive, reproductive / reproductive performance / fertility / fertility)?
The NEL was 48 mg/kg/day.

What about the LEL [8, 28] of the same compound?
Its LEL is 391 mg/kg/day.

What about the LOAEL [8, 28] of the same compound?
Its LOAEL is over 391 mg/kg/day.

What about the NOAEL [8, 28] of the same compound?
Its NOAEL is at least 391 mg/kg/day.

What about the LEL [9] of the same compound?
Its LEL is 0.25 mg/kg/day.

What about the LOAEL [9] of the same compound?
Its LOAEL is over 250 mg/kg/day.

What about the NEL [9] of the same compound?
Its NEL is under 0.25 mg/kg/day.

What about the NOAEL [9] of the same compound?
The NOAEL was at least 250 mg/kg/day.

What about the LEL [10, 29] of the same compound?
Its LEL is 666 mg/kg/day.

And the LOAEL [10, 29]?
The LOAEL was 666 mg/kg/day.

What about the NEL [10, 29] of the same compound?
The NEL was 357 mg/kg/day.

What about the NOAEL [10, 29] of the same compound?
The NOAEL was 357 mg/kg/day.

What about the LOAEL [10, 30] of the same compound?
The LOAEL was 666 mg/kg/day.

What about the NOAEL [10, 30] of the same compound?
Its NOAEL is 357 mg/kg/day.

What about the LEL [10, 31] of the same compound?
Its LEL is 357 mg/kg/day.

And the NEL [10, 31]?
Its NEL is under 357 mg/kg/day.

And the NEL ([11]; systemic / pathology microscopic / liver / carcinoma + systemic / in life observation / body weight / body weight + systemic / in life …)?
Its NEL is 450 mg/kg/day.

What about the LOAEL ([11]; systemic / pathology microscopic / testes / degeneration) of the same compound?
The LOAEL was 900 mg/kg/day.

And the LEL [11, 32]?
The LEL was 900 mg/kg/day.

What about the NOAEL [11, 32] of the same compound?
The NOAEL was 450 mg/kg/day.

What about the LEL [12] of the same compound?
Its LEL is 171 mg/kg/day.

And the NEL [12]?
The NEL was 56 mg/kg/day.
